Measured values from patent publication US12616203B2, “Use of 3-isoxazolidinones compounds as selective herbicides” (FMC Corporation, priority 2014, dated 2026).
“Also recorded” adds a separate entry of the source.

Experiments:
Wild buckwheat = test: Ex11 PRE 2,4-DC + clomazone, % control 28 DAT, Colby; assay type: in vivo, Polygonum convolvulus
From the text: The crop tested was Oilseed rape.
Additional treatments included applications of metazachlor (Butisan®, 43.1%) at 750 g ai/ha, napropamide (Devrinol DF®, 50%) at 1260 g, and dimethachlor (Teridox®, 48%) at 1000 g. […] Treatments were applied just after the planting of tall morningglory, wild mustard, common lambsquarters, Italian ryegrass, wild buckwheat, redroot pigweed, common chickweed, corn poppy, and oilseed rape.
(§1) Flats were watered and fertilized routinely after treatment application. Each treatment was replicated three times.

Wild mustard = test: Ex13 PRE 2,4-DC + diflufenican, % control 28 DAT, Colby; assay type: in vivo, Sinapis arvensis
From the text: Pyroxasulfone (KIH-485, 85%) at 74.3 g ai/ha, pendimethalin (Prowl 3.3EC, 37.4%) at 1200 g ai/ha, or a premix of chlorsulfuron plus metsulfuron-methyl (Report Extra, 75%) at 15.8 g ai/ha were applied as commercial standards. […] Treatments were replicated 3 times and flats were watered after planting before the treatment and lightly watered after treatment application. Thereafter flats were watered and fertilized routinely.

weeds [1] = test: Ex10 PRE greenhouse; assay type: in vivo; conditions: 28 DAT, weed and rate in the words
Yellow nutsedge = test: Ex39 PRE 2,4-DC + pyroxasulfone + carfentrazone, % control 28 DAT, Colby
weeds; Wheat and Barley = test: Ex14 POST greenhouse; assay type: in vivo; conditions: 28 DAT, rate in the words
From the text: The study further assessed post crop safety on Wheat and Barley.
Nonionic surfactant at 0.5% (v/v) was included with commercial standards application. No adjuvant was applied with any other treatments. All plant species were direct seeded into 3″ plastic pots using metro-mix as growth media. At treatment application common lambsquarters was 1.75″, common chickweed was 2″, wild mustard was 2.25″, wild oat was 5.5″, wild buckwheat was 2-5″, Italian ryegrass was 2-3″, wheat was 5.5″, and barley was 4.5″ in height. Plants were watered well before application and not watered 24 h after application. Plants were watered and fertilized routinely after treatment application. Each treatment was replicated four times.

[2] = tested on: weeds; Wheat, barley, and oil seed rape (OSR); test: Ex19 PRE greenhouse; assay type: in vivo; conditions: rate in the words
From the text: In this study, the crops tested included Wheat, barley, and oil seed rape (OSR).
To determine weed efficacy and wheat, barley or OSR selectivity, 2,4 DC (CS 36.7%) and Diflufenican (CS 19.5%) were applied preemergence either alone or as tank-mix partners at the following rates. 2,4 DC was applied at 125, 170, 210 and 250 g ai/ha while Diflufenican was applied at 50, 75, and 100 g ai/ha. Pyroxasulfone (KIH-485, 85%) at 74.3 g ai/ha, pendimethalin (Prowl 3.3EC, 37.4%) at 1200 g ai/ha, or a premix of chlorsulfuron plus metsulfuron-methyl (Report Extra, 75%) at 15.8 g ai/ha were applied as commercial standards.
Herbicides included as standards for comparison were pyroxasulfone, pendimethalin, and a pre mix of chlorsulfuron plus metsulfuron methyl, all applied at labeled rates as indicated above. Treatments were replicated 3 times. […] Thereafter flats were watered and fertilized routinely.

Quackgrass = test: Ex32 PRE 2,4-DC + pyroxasulfone + sulfentrazone, % control 28 DAT, Colby; assay type: in vivo, Elymus repens
From the text: (§2) Treatments were applied at the time of planting to Italian ryegrass, green foxtail, littleseed canarygrass, wild oat, quackgrass, dandelion, common chickweed, white clover, yellow nutsedge, redroot pigweed, field bindweed, canola, and wheat. […] Flats were watered and fertilized routinely after treatment application.

Velvetleaf = test: Ex37 PRE 2,4-DC + atrazine, % control 28 DAT, Colby; assay type: in vivo, Abutilon theophrasti
From the text: S-metolachlor (DUAL II MAGNUM®, 82.4%) at 525 g ai/h plus atrazine at 560 g ai/h was included as a standard for comparison. […] Thereafter flats were watered and fertilized routinely.

weeds; canola, and wheat = test: Ex32 PRE greenhouse; assay type: in vivo; conditions: rate in the words
From the text: as §2

weeds; Wheat and canola = test: Ex35 PRE greenhouse; assay type: in vivo; conditions: rate in the words
From the text: Crops screened were wheat and canola.

weeds [3] = test: Ex16 PRE greenhouse; assay type: in vivo; conditions: weed and rate in the words
From the text: To determine PRE efficacy, five levels of 2,4 DC (36.7% CS) 0, 125, 170, 210, or 250 g ai/ha and five levels of pyroxasulfone (KIH485-85WG) 0, 50, 65, 80, or 95 g ai/ha were applied either alone or as tank-mix. Additional treatments consisted of premix of pyroxasulfone plus fluthiacet-methyl (Anthem™ 23.3%) at 169.9 g ai/ha, S-metolachlor (Dual II Magnum, 82.4%) at 1388 g, and tank-mix of mesotrione (Callisto, 40%) at 123 g plus S-metolachlor at 1252 g. […] Treatments were applied before the emergence of black nightshade, giant foxtail, green foxtail, yellow foxtail, large crabgrass, kochia, redroot pigweed, common ragweed, and barnyardgrass.
as §1

Compound `CC1(C)CON(Cc2ccc(Cl)cc2Cl)C1=O` [2,4-DC, 2-(2,4-dichlorophenyl)methyl-4,4-dimethyl-3-isoxazolidinone] has an X (Wild buckwheat; 2,4-DC alone 125 g ai/ha) of 10%, an X (Wild buckwheat; 2,4-DC alone 170 g ai/ha) of 30% and an X (Wild buckwheat; 2,4-DC alone 210 g ai/ha) of 22%. It also gave an X (Wild buckwheat; 2,4-DC alone 250 g ai/ha) of 27%, an X (Wild mustard; 2,4-DC alone 125 g ai/ha) of 10% and an X (Wild mustard; 2,4-DC alone 170 g ai/ha) of 15%. For the same compound, the X (Wild mustard; 2,4-DC alone 210 g ai/ha) was 26%, the X (Wild mustard; 2,4-DC alone 250 g ai/ha) was 23% and the “weed control in words” value (weeds [1]) was “alone at 250 g ai/ha controlled common lambsquarters”. For the same compound, the “X (% control, 2,4-DC alone)” value (Yellow nutsedge; PRE, 2,4-DC 50 g ai/ha) was 1%, the “X (% control, 2,4-DC alone)” value (Yellow nutsedge; PRE, 2,4-DC 100 g ai/ha) was 3% and the “X (% control, 2,4-DC alone)” value (Yellow nutsedge; PRE, 2,4-DC 200 g ai/ha) was 3%. For the same compound, the “weed control / crop safety in words” value (weeds; Wheat and Barley) was “applied alone did not control any weed in the assay, and was safe at all rates on both wheat and barley”, the “weed control / crop safety in words” value [2] was “applied at 125 g ai/ha provided suppression (70-84% injury) to corn poppy, higher rates controlled (≥85% injury) corn poppy; also recorded: Wheat, barley, and oilseed rape (OSR) were safe (≤10% injury) with all stand alone treatments” and the X (Quackgrass; 2,4-DC alone 50 g ai/ha) was 0%. For the same compound, the X (Quackgrass; 2,4-DC alone 100 g ai/ha) was 7%, the X (Quackgrass; 2,4-DC alone 200 g ai/ha) was 10% and the “X (% control, 2,4-DC alone)” value (Velvetleaf; PRE, 2,4-DC 50 g ai/ha) was 18%. For the same compound, the “X (% control, 2,4-DC alone)” value (Velvetleaf; PRE, 2,4-DC 100 g ai/ha) was 19%, the “X (% control, 2,4-DC alone)” value (Velvetleaf; PRE, 2,4-DC 200 g ai/ha) was 90% and the “weed control / crop safety in words” value (weeds; canola, and wheat) was “alone controlled Italian ryegrass and wild oat at 400 g; common chickweed was controlled at all rates; green foxtail was controlled at ≥100 g; littleseed canarygrass and redroot pigweed were controlled at 200 g”. The “weed control / crop safety in words” value (weeds; Wheat and canola) was “alone at 50 g ai/ha controlled (≥85% injury) common chickweed, at 100 g controlled blackgrass and wild buckwheat; also recorded: alone was safe on wheat and canola (≤10% injury) when applied at 50 and 100 g” and the “weed control in words” value (weeds [3]) was “alone controlled kochia at 210 g ai/ha, barnyardgrass and large crabgrass at 125 g, giant foxtail and green foxtail at 170 g”.
